Experimental data published in patent publication US20080089862A1, “PROTEASE INHIBITORS AND METHOD OF SCREENING THEREOF” (priority 2005, published 2008).
No end group written: not given here.

Target: T1, MBP-scNS3 (Hepatitis C virus genotype 1b, UniProt P26663)
T1 construct: made in house
Experiment: Bacterial genetic screening, blue/white colonies on X-gal indicative plates
Assay type: cell-based, Hepatitis C virus (HCV) genotype Ib
Settings: IPTG-induced test bacteria (pMGT14); blue = NS3 inhibited
Source text: Applying the bacterial genetic screening to isolate NS3-inhibitory scFvs. Affinity selected phages were pooled and used as source for scFv DNA by digestion of phagemid DNA with Ncol and Notl. The pooled insert DNA was cloned into pMALc-NN that had been digested with the same enzymes essentially as described (Bach et al., 2001). In pMALc-NN, expression of MBP-scFvs is under the control of an IPTG-inducible tac promoter and the plasmid carries an ampicillin resistance cassette and the colEl origin of replication and is thus compatible with pMGT14 or pMGT15. The plasmid pool was introduced into E. coli TG-I cells already containing the pMGT14 plasmid. The transformants were plated to yield individual colonies on 2xYT agar plates supplemented with 0.004% (w/v) X-gal, 100 μg/ml ampicillin, 50 μg/ml kanamycin, 0.2% arabinose and 0.05 mM IPTG. Blue colonies were picked and pMALc-NN-scFv DNA was recovered and re-introduced into pMGT14 expressing cells to validate the results of the initial screening.
The expression platform was constructed as follows: C-terminal peptides were introduced by PCR using pMALc-NN (Bach et al., 2001) as template and recloning into the same backbone. The ligated vectors were introduced into the “bacterial test strain” and IPTG induction was used to overexpress the peptides. […]

Sequence	colony colour on X-gal plates
DYKDDDDK [FLAG epitope]	colorless
EASEDVVC (not fully specified) ["product-like" peptide (NS5A/B site P side), control construct]	blue
